Measurements from patent US20060193786A1, “Pharmaceutical composition for intranasal administration containing a CGRP antagonist” (Boehringer Ingelheim Pharma GmbH & Co. KG, priority 2002, published 2006).

Experiment: Stability testing of more highly concentrated nasal spray solutions
Type: physicochemical
Conditions: for content of active substance (A): as free base
Experimental: Stability testing of more highly concentrated nasal spray solutions according to the invention:
The total decomposition which is high in some circumstances (particularly at 40° C.) is based on hydrolysis.
The content of active substance (A) given in Table 1 refers in each case to the free base originally weighed out.

[1] = active substance concentration 15, 3-month value, 25° C.
[2] = active substance concentration 15, 3-month value, 40° C.
[3] = active substance concentration 15, 6-month value, 25° C.
[4] = active substance concentration 15, 6-month value, 40° C.
[5] = active substance concentration 15, 6-week value, 25° C.
[6] = active substance concentration 15, 6-week value, 40° C.
[7] = active substance concentration 15, initial value
[8] = active substance concentration 20%, 3-month value, 25° C.
[9] = active substance concentration 20%, 3-month value, 40° C.
[10] = active substance concentration 20%, 6-month value, 25° C.
[11] = active substance concentration 20%, 6-month value, 40° C.
[12] = active substance concentration 20%, 6-week value, 25° C.
[13] = active substance concentration 20%, 6-week value, 40° C.
[14] = active substance concentration 20%, initial value
[15] = active substance concentration 30%, 3-month value, 25° C.
[16] = active substance concentration 30%, 3-month value, 40° C.
[17] = active substance concentration 30%, 6-month value, 25° C.
[18] = active substance concentration 30%, 6-month value, 40° C.
[19] = active substance concentration 30%, 6-week value, 25° C.
[20] = active substance concentration 30%, 6-week value, 40° C.
[21] = active substance concentration 30%, initial value

For `NCCCC[C@H](NC(=O)[C@@H](Cc1cc(Br)c(O)c(Br)c1)NC(=O)N1CCC(N2Cc3ccccc3NC2=O)CC1)C(=O)N1CCN(c2ccncc2)CC1` [(A), 1-[N^2-[3,5-dibromo-N-[[4-(3,4-dihydro-2(1H)-oxoquinazolin-3-yl)-1-piperidinyl]carbonyl]-D-tyrosyl]-L-lysyl]-4-(4-pyridinyl)-piperazine], the decomposition by oxidation [1] was 0.64%, the overall decomposition [1] was 1.69% and the “content of active substance (A)” value [1] was 147.7 mg/mL. For the same molecule, the decomposition by oxidation [2] was 0.55%, the overall decomposition [2] was 8.22% and the “content of active substance (A)” value [2] was 139.4 mg/mL. For the same molecule, the decomposition by oxidation [3] was 0.82%, the overall decomposition [3] was 2.07% and the “content of active substance (A)” value [3] was 147.7 mg/mL. The decomposition by oxidation [4] was 0.78%, the overall decomposition [4] was 15.33% and the “content of active substance (A)” value [4] was 131.7 mg/mL. The decomposition by oxidation [5] was 0.72%, the overall decomposition [5] was 1.60% and the “content of active substance (A)” value [5] was 148.1 mg/mL. The decomposition by oxidation [6] was 0.52%, the overall decomposition [6] was 4.46% and the “content of active substance (A)” value [6] was 142.3 mg/mL. For the same molecule, the decomposition by oxidation [7] was 0.59%, the overall decomposition [7] was 1.23% and the “content of active substance (A)” value [7] was 148.6 mg/mL. The decomposition by oxidation [8] was 0.53%, the overall decomposition [8] was 1.50% and the “content of active substance (A)” value [8] was 202.8 mg/mL. For the same molecule, the decomposition by oxidation [9] was 0.47%, the overall decomposition [9] was 8.23% and the “content of active substance (A)” value [9] was 191.4 mg/mL. For the same molecule, the decomposition by oxidation [10] was 0.77%, the overall decomposition [10] was 1.99% and the content of active substance (A) [10] was 202 mg/mL. The decomposition by oxidation [11] was 0.74%, the overall decomposition [11] was 14.61% and the “content of active substance (A)” value [11] was 182.8 mg/mL. For the same molecule, the decomposition by oxidation [12] was 0.54%, the overall decomposition [12] was 1.09% and the “content of active substance (A)” value [12] was 198.7 mg/mL. For the same molecule, the decomposition by oxidation [13] was 0.55%, the overall decomposition [13] was 3.97% and the “content of active substance (A)” value [13] was 192.1 mg/mL. The decomposition by oxidation [14] was 0.56%, the overall decomposition [14] was 1.27% and the “content of active substance (A)” value [14] was 197.9 mg/mL. For the same molecule, the decomposition by oxidation [15] was 0.60%, the overall decomposition [15] was 1.48% and the “content of active substance (A)” value [15] was 270 mg/mL. The decomposition by oxidation [16] was 0.59%, the overall decomposition [16] was 7.81% and the “content of active substance (A)” value [16] was 260 mg/mL. The decomposition by oxidation [17] was 0.91%, the overall decomposition [17] was 2.04% and the “content of active substance (A)” value [17] was 273 mg/mL. For the same molecule, the decomposition by oxidation [18] was 0.84%, the overall decomposition [18] was 13.36% and the “content of active substance (A)” value [18] was 246 mg/mL. The decomposition by oxidation [19] was 0.62%, the overall decomposition [19] was 1.19% and the “content of active substance (A)” value [19] was 264 mg/mL. For the same molecule, the decomposition by oxidation [20] was 0.58%, the overall decomposition [20] was 3.95% and the “content of active substance (A)” value [20] was 260 mg/mL. The decomposition by oxidation [21] was 0.56%, the overall decomposition [21] was 1.20% and the “content of active substance (A)” value [21] was 269 mg/mL. The oxidative decomposition (hydrochloride in aqueous solution, over a long period) was “virtually unchanged or increases only slightly”.
